Patent publication US20230365590A1, “BIPHENYL COMPOUND AS IMMUNOMODULATOR, PREPARATION METHOD THEREFOR AND APPLICATION THEREOF” (SHENZHEN CHIPSCREEN BIOSCIENCES CO., LTD., priority 2020, published 2023)

How the values were obtained:
[1] = tested on: PD-1/PD-L1 mediated inhibitory signal to T cell activation (CHO-PD-L1-CD3L cells and Jurkat-PD-1-NFAT cells); experiment: Blocking of PD-1/PD-L1 mediated inhibitory signal to T cell activation at cell level (NFAT luciferase reporter, co-culture); type: cell-based; conditions: Homo sapiens, CHO-PD-L1-CD3L / Jurkat-PD-1-NFAT co-culture, 6 h
Method: In order to test the effect of interaction between PD-1 and PD-L1 on T cell activation signal in immune response, CHO-PD-L1-CD3L cells stably expressing human PD-L1 molecule and anti-CD3 single-chain antibody (ScFv) and Jurkat-PD-1-NFAT cells stably expressing human PD-1 molecule and NFAT reporter gene were constructed. When two kinds of cells are incubated together, anti-CD3 ScFv on the CHO cell surface and membrane CD3 molecule of Jurkat cell combine to transmit an activation signal into Jurkat cell. However, due to the binding of PD-L1 on the CHO cell surface and PD-1 molecule on the Jurkat cell surface at the same time, a signal for inhibiting activation is transmitted inward, so that luciferase reporter gene cannot be expressed. When an immunocheckpoint antibody or small-molecule inhibitor is added, the binding of PD-1 and PD-L1 is blocked, the NFAT pathway activated by CD3 ScFv antibody and CD3 cross-linking mediated T cell activation signal is no longer affected by the inhibitory signal, and the downstream luciferase reporter gene starts to be expressed. Chemiluminescence signals proportional to reporter gene activation can be detected by adding a catalytic substrate.
CHO-PD-L1-CD3L cells expressing human PD-L1 molecule and anti-CD3 single-chain antibody (ScFv) and Jurkat-PD-1-NFAT cells stably expressing human PD-1 molecule and NFAT reporter gene were all independently constructed and presented by Dr. Chen Bo (KeyMed Biosciences (Chengdu) Co., Ltd. Puromycin (Cat # 540411) and Hygromycin B (Cat # V900372) for stable culture of transfected cells were purchased from Sigma, PMA (Cat # P1585) was purchased from Sigma, and the anti human PD-L1 antibody (Cat # GMP-A066) was purchased from Novoprotein Company. The Luciferase substrate solution (Cat # E6485) and the luciferase-specific cell lysate 5×(Cat # E1531) were purchased from Promega company. The fluorescence detector Tecan (Spark 10M) was purchased from Tecan Company in Switzerland.
Main Process of Experiment • (1) On the day before the experiment, 100 μL of CHO-PD-L1-CD3L cells (about 4×10^4 cells/well) were inoculated at 37° C. overnight in a 96-well cell culture plate, and the culture medium was DMEM/F12 containing 10% FBS, 8 μg/mL Puromycin and 200 μg/mL Hygromycin B. • (2) The test compound was diluted with 0.1% PBST to obtain solutions with different concentration gradients, and then added into 96-well plates and incubated for 30 min in advance. The RPMI 1640 complete medium containing 10% FBS, 8 μg/mL Puromycin and 200 μg/mL Hygromycin B was used to adjust the Jurkat-PD-1-NFAT cell count to 2×10^5 cells/mL, and 100 ng/mL PMA (10 mg/mL storage solution prepared with DMSO) was added to amplify the T cell activation signal. 100 μL of the Jurkat-PD-1-NFAT cells were added into each well of the 96-well plates for co-culture. • (3) During the test reaction, control groups were set, including the solvent control without adding the test compound and the positive control with the addition of the […] in the experimental system. All tests were conducted by use of multiple holes. • (4) Incubation was continued at 37° C. for 6 h, 40 μL of 5×cell lysate was added directly, the solution was mixed well and placed at room temperature for 10 min to completely lyse cells. 50 μL of lysed cell solution was transferred to a fluorescence detection plate, 30 μL of luciferase substrate solution was then added, and the chemiluminescence detection program was immediately selected on the fluorescence detector for determination. • (5) Calculation formula of the inhibition rate of the test compound against T cell activation signal at the cell level: The inhibition rate against T cell activation signal (%)=(original chemiluminescence value of the test hole−solvent control)/(the highest original chemiluminescence value determined in the compound test hole−solvent control)×100%. […]

[2] = biological target: PD-1/PD-L1 binding (recombinant human PD-L1-Fc fusion protein and His-PD-1 protein) (Homo sapiens (Human), UniProt Q9NZQ7); experiment: In vitro inhibitory activity against PD-1/PD-L1 binding (HTRF); conditions: read-out: IC50 for inhibiting PD-1/PD-L1 binding in vitro
PD-1/PD-L1 binding (recombinant human PD-L1-Fc fusion protein and His-PD-1 protein), sequence (Q9NZQ7 19-239): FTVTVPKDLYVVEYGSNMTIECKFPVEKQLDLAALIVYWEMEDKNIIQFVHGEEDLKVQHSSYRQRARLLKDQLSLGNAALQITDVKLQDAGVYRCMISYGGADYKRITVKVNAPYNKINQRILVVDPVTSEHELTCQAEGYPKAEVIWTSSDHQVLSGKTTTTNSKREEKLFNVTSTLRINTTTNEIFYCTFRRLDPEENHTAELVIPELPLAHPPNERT
Description: Homogeneous time resolved fluorescence method (HTRF): This method uses the recombinant human PD-L1 protein fused with hFc tag and the recombinant human PD-1 protein fused with His tag, which are interacting ligands and receptors. When the anti-hFc antibody containing chelated Eu tag and the anti-His antibody containing XL665 fluorescein tag are used to bind with the above two corresponding tags respectively and are excited by 320 nm laser, energy can be transferred from Eu element to XL665 fluorescein due to ligand receptor binding, and the XL665 fluorescein is excited to emit light with a wavelength of 665 nm. When an inhibitor for inhibiting interaction of PD-L1 and PD-1 is added, the binding of the ligand and the receptor is destroyed, causing a long distance between Eu and XL665. As a result, the energy cannot be transferred, and the XL665 fluorescein will not be excited.
Experimental Materials and Devices The recombinant human PD-1 protein with His tag (His-PD-1 protein, Cat #: 10377-H08H-50) and the recombinant human PD-L1-Fc fusion protein (PD-L1-Fc fusion protein, Cat #: 10084-H02H-100) were purchased from Sino Biological Inc., anti-hFc-Eu^3+ antibody and anti-His-XL665 antibody were purchased from Cisbio, and other related reagents such as a diluent buffer (diluent buffer 5 (Cat #: 62DL5DDC) and a detection buffer (PPI-European detection buffer, Cat #: 61DB9RDF) were purchased from Cisbio. Fluorescence detector Tecan (Spark 10M) was purchased from Tecan Company in Switzerland.
The experiment process was carried out according to the flow required in the operating manual of the test reagent. The process was as follows: • (1) Experiment preparation: A test compound was diluted to different concentration gradients with the dilution buffer (the highest final concentration in a 20 μL final reaction system was 10 μM). The His-PD-1 protein was diluted to 800 nM (the final concentration in the 20 final reaction system was 100 nM). The PD-L1-Fc fusion protein was diluted to 16 nM (the final concentration was 2 nM). […] All tests were conducted by use of multiple holes. • (4) The fluorescence detector Tecan (Spark 10M) was used to detect the fluorescence signal of each hole. The excitation wavelength was 320 nm, and the emission wavelengths for detection were 620 nm and 665 nm, respectively. The strength of PD-1/PD-L1 binding refers to a fluorescence signal ratio Em665/Em620. • (5) Calculation formula of binding inhibition rate of test compound: Inhibition rate (%)=[1−(fluorescence signal ratio of detected hole−fluorescence signal ratio of 100% inhibition negative control)]/(fluorescence signal ratio of 0% inhibition positive control−fluorescence signal ratio of 100% inhibition negative control)×100%. The 50% inhibition concentration (IC50) was calculated after the PD-1/PD-L1 binding inhibition rates of the test compound with different concentration gradients were calculated respectively.

Row | Structure (SMILES) | EC50 [1] [nM] | IC50 [2] [nM]
1 | COCC12CCC(CCCN3CCc4c(nc(C(=O)Nc5cccc(-c6cccc(NC(=O)c7nc8c(n7C)CCN(CCC79CCC(C(=O)O)(CC7)C9)C8)c6C)c5Cl)n4C)C3)(CC1)C2 [Compound I-1, 4-(2-(2-((2′-chloro-3′-(5-(3-(4-(methoxymethyl)bicyclo[2. 2.1]heptan-1-yl)propyl)-1-methyl-4,5,6,7-tetrahydro-1H-imidazo[4,5-c]pyridine-2-carboxamido) -2-methyl-[1,1′-biphenyl]-3-yl)carbamoyl)-1-methyl-1,4,6,7-tetrahydro-5H-imidazo[4,5-c]pyridin-5-yl)ethyl)bicyclo[2.2.1]heptane-1-carboxylic acid] | 33.9 | 1.47
2 | COCC12CCC(CCCN3CCc4c(nc(C(=O)Nc5cccc(-c6cccc(NC(=O)c7nc8c(n7C)CCN(CCC79CCC(C(=O)O)(CC7)C9)C8)c6Cl)c5C)n4C)C3)(CC1)C2 [Compound I-2, 4-(2-(2-((2-chloro-3′-(5-(3-(4-(methoxymethyl)bicyclo[2.2.1]heptan-1-yl)propyl)-1-methyl-4,5,6,7-tetrahydro-1H-imidazo[4,5-c]pyridine-2-carboxamido)-2′-methyl-[1,1′-biphenyl]-3-yl)carbamoyl)-1-methyl-1,4,6,7-tetrahydro-5H-imidazo[4,5-c]pyridin-5-yl)ethyl)bicyclo[2.2.1]heptane-1-carboxylic acid] | 18.1 | 1.32
3 | CCOCC12CCC(CCN3CCc4c(nc(C(=O)Nc5cccc(-c6cccc(NC(=O)c7nc8c(n7C)CCN(CCC79CCC(C(=O)O)(CC7)C9)C8)c6C)c5Cl)n4C)C3)(CC1)C2 [Compound I-3, 4-(2-(2-((2′-chloro-3′-(5-(2-(4-(ethoxymethyl)bicyclo[2.2.1]heptan-1-yl)ethyl)-1-methyl-4,5 ,6,7-tetrahydro-1H-imidazo[4,5-c]pyridine-2-carboxamido)-2-methyl-[1,1′-biphenyl]-3-yl)carbamoyl)-1-methyl-1,4,6,7-tetrahydro-5H-imidazo[4,5-c]pyridin-5-yl)ethyl)bicyclo[2.2.1]heptane-1-carboxylic acid] | 17 | 1.19
4 | COCC12CCC(CCN3CCc4c(nc(C(=O)Nc5cccc(-c6cccc(NC(=O)c7nc8c(n7C)CCN(CCC79CCC(C(=O)O)(CC7)C9)C8)c6C)c5Cl)n4C)C3)(CC1)C2 [Compound I-4, 4-(2-(2-((2′-chloro-3′-(5-(2-(4-(methoxymethyl)bicyclo[2. 2.1]heptan-1-yl)ethyl)-1-methyl-4,5,6,7-tetrahydro-1H-imidazo[4,5-c]pyridine-2-carboxamido)-2-methyl-[1 ,1′-biphenyl]-3-yl)carbamoyl)-1-methyl-1,4,6,7-tetrahydro-5H-imidazo[4,5-c]pyridin-5-yl)ethyl)bicyclo[2.2.1]heptane-1-carboxylic acid] | 28.3 | 1.89
5 | COCC12CCC(CCN3CCc4c(nc(C(=O)Nc5cccc(-c6cccc(NC(=O)c7nc8c(n7C)CCN(CCC79CCC(C(=O)O)(CC7)C9)C8)c6Cl)c5C)n4C)C3)(CC1)C2 [Compound I-5, 4-(2-(2-((2-chloro-3′-(5-(2-(4-(methoxymethyl)bicyclo[2.2.1]heptan-1-yl)ethyl)-1-methyl-4,5,6,7-tetrahydro-1H-imidazo[4,5-c]pyridine-2-carboxamido)-2′-methyl-[1,1′-biphenyl]-3-yl)carbamoyl)-1-methyl-1,4,6,7-tetrahydro-5H-imidazo [4,5-c]pyridin-5-yl)ethyl)bicyclo[2.2.1]heptane-1-carboxylic acid] | 26.7 | 2.35
6 | COCC12CCC(CCN3CCc4c(nc(C(=O)Nc5cccc(-c6cccc(NC(=O)c7nc8c(n7C)CCN(CCC79CCC(C(=O)O)(CC7)C9)C8)c6Cl)c5Cl)n4C)C3)(CC1)C2 [Compound I-6, 4-(2-(2-((2,2′-dichloro-3′-(5-(2-(4-(methoxymethyl)bicyclo[2.2.1]heptan-1-yl)ethyl)-1-methyl-4,5,6,7-tetrahydro-1H-imidazo[4,5-c]pyridine-2-carboxamido)-[1, 1′-biphenyl]-3-yl)carbamoyl)-1-methyl-1,4,6,7-tetrahydro-5H-imidazo[4,5-c]pyridin-5-yl)ethyl)bicyclo[2.2.1]heptane-1-carboxylic acid] | 15.8 | –
7 | Cn1c(C(=O)Nc2cccc(-c3cccc(NC(=O)c4nc5c(n4C)CCN(CCC46CCC(C(=O)O)(CC4)C6)C5)c3Cl)c2Cl)nc2c1CCN(CCC13CCC(COC(F)F)(CC1)C3)C2 [Compound I-7, 4-(2-(2-((2,2′-dichloro-3′-(5-(2-(4-((difluoromethoxy)methyl)bicyclo[2.2.1]heptan-1-yl)ethyl)-1-methyl-4,5,6,7-tetrahydro-1H-imidazo[4,5-c]pyridine-2-carboxamido)-[1,1′-biphenyl]-3-yl)carbamoyl)-1-methyl-1,4,6,7-tetrahydro-5H-imidazo[4,5-c]pyridin-5-yl)ethyl)bicyclo[2.2.1]heptane-1-carboxylic acid] | 39.2 | 0.29
8 | COCC12CCC(CN3CCc4c(nc(C(=O)Nc5cccc(-c6cccc(NC(=O)c7nc8c(n7C)CCN(CCC79CCC(C(=O)O)(CC7)C9)C8)c6Cl)c5Cl)n4C)C3)(CC1)C2 [Compound I-8, 4-(2-(2-((2,2′-dichloro-3′-(5-((4-(methoxymethyl)bicyclo[2.2.1]heptan-1-yl)methyl)-1-methyl-4,5,6,7-tetrahydro-1H-imidazo[4,5-c]pyridine-2-carboxamido)-[1, 1′-biphenyl]-3-yl)carbamoyl)-1-methyl-1,4,6,7-tetrahydro-5H-imidazo[4,5-c]pyridin-5-yl)ethyl)bicyclo[2.2.1]heptane-1-carboxylic acid] | 30.3 | 3.7
